Source: patent US11597919B2, “Systems, methods and compositions for sequence manipulation with optimized functional CRISPR-Cas systems” (The Broad Institute, Inc., priority 2013, dated 2023)

Tests used:
Factor VII = settings: LNP siRNA systems containing these lipids; cited from earlier work
[1] = system: target DNA with 5′-NGG PAM; test: Cleavage of target DNA bearing 5′-NGG PAM by PI domain chimeras (Example 12); type: cell-based, human; settings: 5′-GGGCT
Procedure: (§1) Cells were transfected using Lipofectamine 2000 (Life Technologies) at 70-80% confluency following the manufacturer's recommended protocol.
(§2) Genomic DNA was extracted using the QuickExtract DNA Extraction Solution (Epicentre) following the manufacturer's protocol.
(§3) 400 ng total of the purified PCR products were mixed with 2 μl 10× Taq DNA Polymerase PCR buffer (Enzymatics) and ultrapure water to a final volume of 20 μl, and subjected to a re-annealing process to enable heteroduplex formation: 95° C. for 10 min, 95° C. to 85° C. ramping at −2° C./s, 85° C. to 25° C. at −0.25° C./s, and 25° C. hold for 1 min. After re-annealing, products were treated with SURVEYOR nuclease and SURVEYOR enhancer S (Transgenomics) following the manufacturer's recommended protocol, and analyzed on 4-20% Novex TBE poly-acrylamide gels (Life Technologies). Gels were stained with SYBR Gold DNA stain (Life Technologies) for 30 min and imaged with a Gel Doc gel imaging system (Bio-rad). Quantification was based on relative band intensities. Indel percentage was determined by the formula, 100×(1−(1−(b+c)/(a+b+c))^1/2), where a is the integrated intensity of the undigested PCR product, and b and c are the integrated intensities of each cleavage product.

[2] = system: genomic DNA in human embryonic kidney 293FT (HEK293FT) cells; test: SURVEYOR nuclease assay of Cas9 and sgRNA mutants (Example 12); type: cell-based
Procedure: as §1, §2, §3

## 1,2-dilinoleyloxy-keto-N,N-dimethyl-3-aminopropane [DLinKDMA]
Factor VII
  gene silencing potency series: DLinKC2-DMA>DLinKDMA>DLinDMA>>DLinDAP

## CCCCC/C=C\C/C=C\CCCCCCCC(=O)OCC(CN(C)C)OC(=O)CCCCCCC/C=C\C/C=C\CCCCC (stereo not shown) [DLinDAP, 1,2-dilineoyl-3-dimethylammonium-propane]
Factor VII
  gene silencing potency series: DLinKC2-DMA>DLinKDMA>DLinDMA>>DLinDAP

## CCCCC/C=C\C/C=C\CCCCCCCCOCC(CN(C)C)OCCCCCCCC/C=C\C/C=C\CCCCC (stereo not shown) [DLinDMA, 1,2-dilinoleyloxy-3-N,N-dimethylaminopropane]
Factor VII
  gene silencing potency series: DLinKC2-DMA>DLinKDMA>DLinDMA>>DLinDAP

## CCCCC/C=C\C/C=C\CCCCCCCCC1(CCCCCCCC/C=C\C/C=C\CCCCC)OCC(CCN(C)C)O1 (stereo not shown) [DLinKC2-DMA, 1,2-dilinoleyl-4-(2-dimethylaminoethyl)-[1,3]-dioxolane]
Factor VII
  gene silencing potency series: DLinKC2-DMA>DLinKDMA>DLinDMA>>DLinDAP

B1: St3-SpCas9: St3Cas9 with the PI domain of SpCas9, SEQ ID NO: 122 (protein)
chain: MAPKKKRKVGIHGVPAAMTKPYSIGLDIGTNSVGWAVTTDNYKVPSKKMKVLGNTSKKYIKKNLLGVLLFDSGITAEGRRLKRTARRRYTRRRNRILYLQEIFSTEMATLDDAFFQRLDDSFLVPDDKRDSKYPIFGNLVEEKAYHDEFPTIYHLRKYLADSTKKADLRLVYLALAHMIKYRGHFLIEGEFNSKNNDIQKNFQDFLDTYNAIFESDLSLENSKQLEEIVKDKISKLEKKDRILKLFPGEKNSGIFSEFLKLIVGNQADFRKCFNLDEKASLHFSKESYDEDLETLLGYIGDDYSDVFLKAKKLYDAILLSGFLTVTDNETEAPLSSAMIKRYNEHKEDLALLKEYIRNISLKTYNEVFKDDTKNGYAGYIDGKTNQEEEDFYVYLKKLLAEFEGADYFLEKIDREDFLRKQRTFDNGSIPYQIHLQEMRAILDKQAKFYPFLAKNKERIEKILTFRIPYYVGPLARGNSDFAWSIRKRNEKITPWNFEDVIDKESSAEAFINRMTSFDLYLPEEKVLPKHSLLYETFNVYNELTKVRFIAESMRDYQFLDSKQKKDIVRLYFKDKRKVTDKDIIEYLHAIYGYDGIELKGIEKQFNSSLSTYHDLLNIINDKEFLDDSSNEAIIEEIIHTLTIFEDREMIKQRLSKFENIFDKSVLKKLSRRHYTGWGKLSAKLINGIRDEKSGNTILDYLIDDGISNRNFMQLIHDDALSFKKKIQKAQIIGDEDKGNIKEVVKSLPGSPAIKKGILQSIKIVDELVKVMGGRKPESIVVVVEMARENQYTNQGKSNSQQRLKRLEKSLKELGSKILKENIPAKLSKIDNNALQNDRLYLYYLQNGKDMYTGDDLDIDRLSNYDIDHIIPQAFLKDNSIDNKVLVSSASNRGKSDDVPSLEVVKKRKTFWYQLLKSKLISQRKFDNLTKAERGGLSPEDKAGFIQRQLVETRQITKHVARLLDEKFNNKKDENNRAVRTVKIITLKSTLVSQFRKDFELYKVREINDFHHAHDAYLNAVVASALLKKYPKLEPEFVYGDYPKYNSFRERKSATEKVYFYSNIMNIFKKSISLADGRVIERPLIEVNEETGESVWNKESDLATVRRVLSYPQVNVVKKTEVQTGGFSKESILPKRNSDKLIARKKDWDPKKYGGFDSPTVAYSVLVVAKVEKGKSKKLKSVKELLGITIMERSSFEKNPIDFLEAKGYKEVKKDLIIKLPKYSLFELENGRKRMLASAGELQKGNELALPSKYVNFLYLASHYEKLKGSPEDNEQKQLFVEQHKHYLDEIIEQISEFSKRVILADANLDKVLSAYNKHRDKPIREQAENIIHLFTLTNLGAPAAFKYFDTTIDRKRYTSTKEVLDATLIHQSITGLYETRIDLSQLGGDKRPAATKKAGQAKKKK
[1]
  cleavage of target DNA with 5′-NGG PAM: cleaved

B2: Cas9 (A175-307): Cas9 mutant lacking the REC2 domain, SEQ ID NO: 116 (protein)
chain: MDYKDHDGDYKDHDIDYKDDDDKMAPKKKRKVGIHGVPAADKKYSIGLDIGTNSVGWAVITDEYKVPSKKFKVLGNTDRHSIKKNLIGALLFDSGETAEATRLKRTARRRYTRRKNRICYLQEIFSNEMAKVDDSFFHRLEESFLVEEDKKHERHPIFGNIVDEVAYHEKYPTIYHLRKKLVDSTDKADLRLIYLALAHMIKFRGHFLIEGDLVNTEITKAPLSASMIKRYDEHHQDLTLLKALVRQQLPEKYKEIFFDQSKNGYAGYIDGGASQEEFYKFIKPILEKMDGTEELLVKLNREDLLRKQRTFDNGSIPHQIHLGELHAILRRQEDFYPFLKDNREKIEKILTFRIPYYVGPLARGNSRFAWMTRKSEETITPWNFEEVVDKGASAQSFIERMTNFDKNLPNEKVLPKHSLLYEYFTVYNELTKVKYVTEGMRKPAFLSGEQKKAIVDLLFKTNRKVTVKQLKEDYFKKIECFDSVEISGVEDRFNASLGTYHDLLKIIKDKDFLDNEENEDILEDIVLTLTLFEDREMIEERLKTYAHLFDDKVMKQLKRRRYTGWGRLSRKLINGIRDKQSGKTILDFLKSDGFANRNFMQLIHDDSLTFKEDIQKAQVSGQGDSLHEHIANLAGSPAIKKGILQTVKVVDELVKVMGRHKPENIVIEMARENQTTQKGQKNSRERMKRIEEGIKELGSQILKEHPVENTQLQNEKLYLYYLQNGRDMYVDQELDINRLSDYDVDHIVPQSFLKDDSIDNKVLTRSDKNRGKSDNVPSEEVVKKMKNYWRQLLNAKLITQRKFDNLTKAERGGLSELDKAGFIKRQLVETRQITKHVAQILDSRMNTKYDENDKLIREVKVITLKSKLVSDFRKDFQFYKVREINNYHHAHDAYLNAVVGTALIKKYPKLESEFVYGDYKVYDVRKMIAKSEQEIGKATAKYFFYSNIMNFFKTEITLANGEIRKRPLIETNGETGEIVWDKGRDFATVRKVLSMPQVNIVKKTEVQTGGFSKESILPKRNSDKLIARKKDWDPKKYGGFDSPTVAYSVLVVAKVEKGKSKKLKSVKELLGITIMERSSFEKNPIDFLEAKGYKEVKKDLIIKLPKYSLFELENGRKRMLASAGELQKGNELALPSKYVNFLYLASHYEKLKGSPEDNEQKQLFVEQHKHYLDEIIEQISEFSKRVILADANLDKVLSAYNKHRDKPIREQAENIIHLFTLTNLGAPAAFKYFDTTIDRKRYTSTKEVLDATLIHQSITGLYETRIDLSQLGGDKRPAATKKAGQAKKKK
[2]; indel, SURVEYOR, n=3
  activity relative to wild-type Cas9: ~50%

B3: A1099-1368: SpCas9 with deletion of the PI domain, SEQ ID NO: 118 (protein)
chain: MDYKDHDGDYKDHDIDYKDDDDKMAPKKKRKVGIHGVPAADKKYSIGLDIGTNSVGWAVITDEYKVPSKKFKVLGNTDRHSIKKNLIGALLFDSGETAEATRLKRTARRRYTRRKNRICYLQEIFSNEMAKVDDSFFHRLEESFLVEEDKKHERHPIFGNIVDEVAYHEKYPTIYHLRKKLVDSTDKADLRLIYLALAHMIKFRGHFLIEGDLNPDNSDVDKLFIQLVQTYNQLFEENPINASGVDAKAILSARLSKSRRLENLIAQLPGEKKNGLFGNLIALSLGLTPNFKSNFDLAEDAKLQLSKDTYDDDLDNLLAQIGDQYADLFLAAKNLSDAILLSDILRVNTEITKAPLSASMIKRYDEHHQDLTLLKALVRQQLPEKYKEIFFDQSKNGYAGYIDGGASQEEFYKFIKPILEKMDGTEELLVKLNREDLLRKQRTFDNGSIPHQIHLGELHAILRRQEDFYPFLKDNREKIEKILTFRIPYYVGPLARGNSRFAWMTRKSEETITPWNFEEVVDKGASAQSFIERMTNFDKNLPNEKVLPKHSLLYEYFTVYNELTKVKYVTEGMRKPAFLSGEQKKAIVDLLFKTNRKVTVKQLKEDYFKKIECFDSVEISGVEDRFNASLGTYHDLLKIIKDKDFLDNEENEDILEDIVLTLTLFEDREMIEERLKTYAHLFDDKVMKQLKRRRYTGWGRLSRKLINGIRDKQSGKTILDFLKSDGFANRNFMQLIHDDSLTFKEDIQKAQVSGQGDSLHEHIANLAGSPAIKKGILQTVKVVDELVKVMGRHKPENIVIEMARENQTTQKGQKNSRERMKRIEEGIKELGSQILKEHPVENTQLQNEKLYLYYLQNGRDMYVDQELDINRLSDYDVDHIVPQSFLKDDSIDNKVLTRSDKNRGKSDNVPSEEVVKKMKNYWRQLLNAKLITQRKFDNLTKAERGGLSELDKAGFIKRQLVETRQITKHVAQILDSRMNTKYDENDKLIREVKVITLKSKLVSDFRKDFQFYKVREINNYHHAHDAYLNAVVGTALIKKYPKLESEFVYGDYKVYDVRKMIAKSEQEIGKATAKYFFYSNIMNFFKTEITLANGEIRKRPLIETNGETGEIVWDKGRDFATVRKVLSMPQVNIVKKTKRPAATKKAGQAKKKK
[2]; Cas9 truncation and point mutants
  DNA cleavage activity: abolished the cleavage activity
